Patent US7541156B1, “Method of identifying antinociceptive compounds using protease activated receptor-2” (priority 2000, dated 2009)
Entries after “also recorded” stand apart in the source; their conditions may differ.

Columns and labels:
PAR-2 = molecular target: T1, PAR-2 (Rattus norvegicus, UniProt Q63645); assay: Intracellular Ca2+ response of primary neuronal cultures; type: cell-based; settings: primary neuronal cultures of adult rat DRGs
T1 construct: assessing the response of primary neuronal cultures to trypsin and AcPep; endogenous in cells; host or cells: primary cultures of adult Sprague-Dawley rat DRG neurons
T1 sequence (Q63645 26-397): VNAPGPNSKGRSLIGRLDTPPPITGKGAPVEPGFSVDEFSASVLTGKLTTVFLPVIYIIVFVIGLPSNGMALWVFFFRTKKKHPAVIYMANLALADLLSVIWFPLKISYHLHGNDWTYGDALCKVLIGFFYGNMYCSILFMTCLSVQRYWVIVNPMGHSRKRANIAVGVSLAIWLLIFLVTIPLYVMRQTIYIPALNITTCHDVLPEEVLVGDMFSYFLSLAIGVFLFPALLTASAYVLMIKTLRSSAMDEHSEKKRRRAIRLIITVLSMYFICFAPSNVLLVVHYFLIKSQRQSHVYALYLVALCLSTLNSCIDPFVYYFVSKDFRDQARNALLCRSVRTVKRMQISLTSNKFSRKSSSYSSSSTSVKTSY
Text: In the results which follow, it is shown that activated proteases can have direct effects on sensory neurons, mediated by specific receptors. PAR-1 and PAR-2 are present in rat DRGs (Young et al. 2000). The presence of one of these receptors, PAR-2, in sensory neurons is first confirmed by finding evidence of mRNA and protein expression in adult rat thoracic DRGs. The functional implications of PAR-2 expression are then examined by assessing the response of primary neuronal cultures to trypsin and AcPep. Both agonists increased intracellular Ca^2+ confirming previously reported findings that a functional PAR 2 receptor is present in adult rat DRGs (Steinhoff et al. 2000). Trypsin stimulates both PAR-1 and PAR-2 and therefore an increase in intracellular Ca^2+ can be caused by activation of the two different receptors. […] Therefore the increased intracellular Ca^2+ response to AcPep reflects specific PAR-2 mediated activation.
Cell Culture. Primary cultures of rat DRG neurons were prepared from male adult Sprague Dawley rats (200-250 gm). Following enzymatic treatment and dissociation, neurons were spun through a percoll cushion (Hofbauer et al. 1998) and were plated at a density of 10,000-20,000 neurons/well of a 48 well tissue culture plate. […]

[1] = system: peripheral afferent nerve endings; settings: subcutaneous injection of 500 μg into the rat paw; cited from earlier work
[2] = system: cultured adult rat thoracic DRG neurons; assay: CGRP release assay in cultured DRG neurons; type: cell-based
Experimental: Cell Culture. Primary cultures of rat DRG neurons were prepared from male adult Sprague Dawley rats (200-250 gm). Following enzymatic treatment and dissociation, neurons were spun through a percoll cushion (Hofbauer et al. 1998) and were plated at a density of 10,000-20,000 neurons/well of a 48 well tissue culture plate. Cultures were maintained in DME+10% FCS supplemented with penicillin/streptomycin, 150 μM uridine and 50 μM 5-fluoro-2-deoxyuridine (Nguyen et al. 1999). NGF (murine, recombinant, 2.5S; Promega, Madison, Wis.) was used at 50 ng/ml. Neurons were treated for five days before release experiments or Calcium-imaging studies were performed.
CGRP release assay. Immunoreactive calcitonin gene-related peptide (IR-CGRP) release from DRG cultures was performed as described by Hingtgen et al. (1995). Briefly, neuron cultures were washed with Release Buffer (RB) (25 mM Hepes, pH 7.4, 135 mM NaCl, 3.5 mM KCl, 2.5 mM CaCl2, 1 mM MgCl2, 3.3 mM Glucose, 0.1% BSA, 1 μM phosphoamidon), and were incubated for 10 min at 37° C. in RB plus 0.1% ethanol (Capsaicin vehicle) to measure basal CGRP release. Fresh RB containing the appropriate concentration of activating peptide (AcPep) or control peptide (CoPep) was added for an additional 10 minutes. Peptide treatment was followed by a 10 minute incubation with an appropriate dose of Capsaicin or KCl. IR-CGRP released by neurons was measured by ELISA. Activating peptide and control peptide were prepared by standard solid phase synthesis procedures by the UTMB Core Protein Facility.
CGRP Quantification. CGRP was quantified in a standard sandwich ELISA. In brief, 96-well “U” bottom microtiter ELISA plates (Dynex, Chantilly, Va.) were coated with affinity purified polyclonal rabbit antibody to rat CGRP (Peninsula Labs, Belmont, Calif.) at 3 μg/ml in 0.125M borate buffered saline (pH 8.1) (100 μl/well). The plates were incubated overnight at 37° C. The next day, the plates were washed three times with saline containing 0.05% Tween-20. Purified rat CGRP (Peninsula Labs) was used at a previously standardized concentration range of 25-1 ng/ml in a four-fold dilution to generate a standard curve. An equal volume of the sample was added in duplicate to a seventy-five μl/well of Tween-PBS (pH 7.1) and the plates were incubated for two hours on a shaker at room temperature. The plates were washed 3 times with Tween-PBS and 100 μl/well (0.2 mg/ml; 1:500 dilution) of in-house biotinylated, rabbit anti rat CGRP IgG (Peninsula Labs) was applied and incubated for two hours at room temperature. After three washes 150 μl of 1:1000 diluted streptavidine-horseradish peroxidase conjugate (Zymed, San Fransisco, Calif.) was added to each well and the plates were incubated for 90 min at room temperature. One-hundred-fifty μl/well of the substrate ortho-phenylene diamine dihydrochloride (Sigma Chemicals, St. Louis, Mo.) 0.4 mg/ml in citrate buffer (pH 4.9) was added after plates were washed three more times. Forty μl/100 ml of 30% H2O2 was added fresh to the citrate buffer just before adding to the wells to activate the coloring reaction. The reaction was stopped with 5N H2SO4 (50 μl/well) and the plates were read at 490 nm in an automated ELISA reader (Bio-Tek Instruments, Inc., Winooski, VE). The OD values were plotted against the CGRP standard curve and CGRP immunoreactivity was quantified using the appropriate formula and expressed as nanogram/ml.
Statistics. Release data are presented as the mean± standard error of the mean (SEM) of wells from three separate experiments. To compare the effects of activating peptide and control peptide on subsequent evoked release, an overall test based on the analysis of variance was performed (ANOVA). […] Intraductal injection studies were analyzed using a repeated measure ANOVA and individual means were compared using a Newman-Keuls multiple comparison test. Significance levels were set at p<0.05. […]

For “SLIGRL (PEPTIDE (1)..(6) PAR-2 activating peptide; listed as Rattus sp.) [AcPep]”, the “intracellular Ca2+” value (PAR-2) is listed as “increased”, the “release of CGRP and Substance P from peripheral afferent nerve endings” value [1] is listed as “results in the release of CGRP and Substance P” and the “CGRP release induced by Capsaicin (50 nM)” value ([2]; 10 min pretreatment with peptide 10 μM, then Capsaicin 50 nM for 10 min in presence of peptide, mean of wells, three experiments) is listed as 7.3 ng/mL. For the same substance, the “CGRP release induced by KCl (70 mM)” value ([2]; 10 min pretreatment with peptide 10 μM, then KCl 70 mM for 10 min in presence of peptide, mean of wells, three experiments) was 2.7 ng/mL, the “CGRP release by peptide alone (basal release)” value ([2]; peptide 10 μM alone, 10 minute incubation) was “did not significantly increase CGRP release; also recorded: does not induce CGRP release; also recorded: no effect on basal CGRP release” and the “KCl evoked IR-CGRP release, in words, versus CoPep” value ([2]; pre-treatment 10 μM for 10 minutes, KCl 70 mM) was “significantly higher increase; also recorded: significantly enhances”. For the same substance, the “Capsaicin-evoked CGRP release, in words, versus CoPep” value ([2]; pretreatment 10 μM for 10 minutes, Capsaicin 50 nM) was “significant increase; also recorded: significantly enhances”.
